Among the data in US5968952A, “Farnesyl transferase inhibiting 2-quinolone derivatives” (Janssen Pharmaceutica, N.V., priority 1995, dated 1999) are IC50 values, retold here.

The target of assay [1] is T1, Human farnesyl protein transferase (Homo sapiens, UniProt P49354+P49356).
T1 construct: were used as a source of human enzyme; endogenous in cells; host or cells: Kirsten virus transformed human osteosarcoma (KHOS) cells (ATCC), grown as monolayers or as solid tumors in nude mice; ammonium sulfate fraction and Q Sepharose pool
Briefly: In Vitro Assay for Inhibition of Farnesyl Protein Transferase ([3H] Scintillation Proximity Assay). The class given is biochemical. The note with it: Table 7; human enzyme from KHOS cells; biotinylated lamin B peptide substrate; 60 min, 37° C.; read-out: IC50 (concentration of test compound producing 50% inhibition of enzyme activity). The method, then: In Vitro Assay for Inhibition of Farnesyl Protein Transferase Human farnesyl protein transferase was prepared essentially as described ([…] al., Methods: A Companion to Methods in Enzymology vol 1, 241-245, 1990). Kirsten virus transformed human osteosarcoma (KHOS) cells (American Type Culture Collection, Rockvill, Md., USA) grown as solid tumors in nude mice or grown as monolayer cell cultures were used as a source of human enzyme. Briefly, cells or tumors were homogenized in buffer containing 50 mM Tris, 1 mM EDTA, 1 mM EGTA and 0.2 mM phenylmethylsulfonylfluoride (pH 7.5). The homogenates were centrifuged 28,000× g for 60 min and the supernatants collected. A 30-50% ammonium sulfate […] prepared, and the resulting precipitate was resuspended in a small (10 to 20 ml) volume of dialysis buffer containing 20 mM Tris, 1 mM dithiothreitol and 20 μM ZnCl2. The ammonium sulfate fraction was dialyzed overnight against two changes of the same buffer. The dialyzed material was applied to a 10×1 cm Q Fast Flow Sepharose (Pharmacia LKB Biotechnology Inc., Piscataway, N.J., USA) which had been preequilibrated with 100 ml of dialysis buffer supplemented with 0.05M NaCl. The column was washed with an additional 50 ml of dialysis buffer plus 0.05M NaCl followed by a gradient from 0.05M to 0.25M NaCl prepared in dialysis buffer. The enzyme activity was eluted with a linear gradient of 0.25 to 1.0M NaCl prepared in the dialysis buffer. Fractions containing 4 to 5 ml volumes of column eluate were collected and analyzed for farnesyl protein transferase activity. Fractions with enzyme activity were pooled and supplemented with 100 μM ZnCl2. Enzyme samples were stored frozen at -70° C. The activity of farnesyl protein transferase was measured using the Farnesyl Transferase [^3 H] Scintillation Proximity Assay (Amersham International plc., England) under the conditions specified by the manufacturer. […] The reaction mixture was warmed to 37° C. The enzyme reaction was started by adding 20 μl of diluted human farnesyl protein transferase. […] Reactions were terminated by the addition of STOP/scintillation proximity bead reagent (Amersham). The reaction product [^3 H]-farnesyl-(Cys)-biotin lamin B peptide was captured on the streptavidin linked scintillation proximity bead. The amount of [^3 H]-farnesyl-(Cys)-biotin lamin B peptide synthesized in the presence or absence of test compounds was quantified as cpm by counting on a Wallac Model 1480 Microbeta Liquid Scintillation Counter. The cpm of product was considered to be farnesyl protein transferase activity. The protein farnesyl transferase activity observed in the presence of test compound was normalized to farnesyl transferase activity in the presence of 10% DMSO and expressed as per cent inhibition. […] W. Johnson Pharmaceutical Research Institue (Spring House, Pa., USA) on a VAX computer.
Background: Scintillation proximity formats need no separation of bound from free tracer.

For assay [2], the system named is NIH 3T3 cells transformed by the T24 activated human H-ras gene. Briefly: Ras-Transformed Cell Phenotype Reversion Assay. The class given is cell-based, mouse. Conditions: NIH3T3; Table 8; T24 H-ras transformed NIH 3T3 cells; 72 hours; cell counts. From the text:
"Ras-Transformed Cell Phenotype Reversion Assay" Insertion of activated oncogenes such as the mutant ras gene into mouse NIH 3T3 cells converts the cells to a transformed phenotype. The cells become tumorigenic, display anchorage independent growth in semi-solid medium and lose contact inhibition. Loss of contact inhibition produces cell cultures which no longer form uniform monolayers. Rather, the cells pile up into multicellular nodules and grow to very high saturation densities in plastic tissue culture dishes. Agents such as protein farnesyl transferase inhibitors which revert the ras transformed phenotype restore the uniform monolayer growth pattern to cells in culture. This reversion is easily monitored by counting the number of cells in tissue culture plates. Transformed cells will achieve higher cell numbers than cells which have reverted to an untransformed phenotype. Compounds which revert the transformed phenotype should produce antitumor effects in tumors bearing ras gene mutations. Method Compounds are screened in tissue culture in NIH 3T3 cells transformed by the T24 activated human H-ras gene. Cells are seeded at an initial density of 200,000 cells per well (9.6 cm^2 surface area) in six-well cluster tissue culture plates. Test compounds are immediately added to 3.0 ml cell growth mediuim in a 3.0 μl volume of DMSO, with a final concentration of DMSO in the cell growth medium of 0.1%. […] Then the cells are detached in 1.0 ml trypsin-EDTA cell dissociation medium and counted on a Coulter particle counter. Measurements Cell numbers expressed as cells per well are measured using a Coulter Particle Counter. All cell counts were corrected for the initial cell input density by subtracting 200,000. Control cell counts=[cell counts from cells incubated with DMSO vehicle--200,000] Test compound cell counts=[cell counts from cells incubated with test compound--200,000]. [formula]

For `O=c1cc(-c2cccc(Cl)c2)c2cc(C(c3ccc(Cl)cc3)n3ccnc3)ccc2[nH]1` (single isomer, unassigned) [Compound 23], the IC50 in assay [1] turned out to be 15 nM; in assay [2] it was 204 nM.

On to `CCC(c1ccc(Cl)cc1)(c1ccc2c(c1)c(-c1cccc(Cl)c1)cc(=O)n2C)n1ccnc1` (stereo not shown) [Compound 63], for which the IC50 was found to be 30 nM in assay [1] and 294 nM in assay [2].

Consider `Cc1cncn1C(C)(c1ccc(Cl)cc1)c1ccc2c(c1)c(-c1cccc(Cl)c1)cc(=O)n2C` (stereo not shown) [Compound 64, 4-(3-chlorophenyl)-6-[1-(4-chlorophenyl)-1-(5-methyl-1H-imidazol-1-yl)ethyl]-1-methyl-2(1H)-quinolinone], for which the IC50 in assay [1] is 11 nM; in assay [2], 133 nM.

As for `Cn1c(=O)cc(-c2cccc(Cl)c2)c2cc(C(CO)(c3ccc(Cl)cc3)n3ccnc3)ccc21` (stereo not shown) [Compound 66], the IC50 in assay [1] worked out at 5.6 nM; in assay [2], 53 nM.

Regarding `COCC(c1ccc(Cl)cc1)(c1ccc2c(c1)c(-c1cccc(Cl)c1)cc(=O)n2C)n1ccnc1` (stereo not shown) [Compound 67], the IC50 in assay [2] came to 114 nM.

For the compound `CSCC(c1ccc(Cl)cc1)(c1ccc2c(c1)c(-c1cccc(Cl)c1)cc(=O)n2C)n1ccnc1` (stereo not shown) [Compound 69], the IC50 in assay [2] turned out to be 500 nM.

Turning to `COCCn1c(=O)cc(-c2cccc(Cl)c2)c2cc(C(c3ccc(Cl)cc3)n3ccnc3)ccc21` (stereo not shown) [Compound 77, 4-(3-chlorophenyl)-6-[(4-chlorophenyl)(1H-imidazol-1-yl)methyl]-1-(2-methoxyethyl)-2(1H)-quinolinone ethanedioate (2:3) monohydrate], the IC50 in assay [1] stood at 7.2 nM; in assay [2], 189 nM.

As to `CN(C)CCn1c(=O)cc(-c2cccc(Cl)c2)c2cc(C(c3ccc(Cl)cc3)n3ccnc3)ccc21` (stereo not shown) [Compound 80], the IC50 in assay [2] was found to be 169 nM.

Regarding `Cn1c(=O)cc(-c2ccc3c(c2)OCO3)c2cc(C(c3ccc(Cl)cc3)n3ccnc3)ccc21` (stereo not shown) [Compound 83, 6-[(4-chlorophenyl)(1H-imidazol-1-yl)methyl]-4-(1,3-benzodioxol-5-yl)-1-methyl-2(1H)-quinolinone ethanedioate (1:1)], the IC50 in assay [1] amounted to 3.4 nM; in assay [2], 68 nM.

In turn, `Cc1cc(C(c2ccc(Cl)cc2)n2ccnc2)cc2c(-c3cccc(Cl)c3)cc(=O)n(C)c12` (stereo not shown) [Compound 89] came in with an IC50 in assay [2] of 445 nM.
